How the values were obtained:
Caco-2 cell barrier = experiment: Transport assay, Caco-2 cell barrier; type: in vitro ADME; conditions: for Permeability / transport rate across Caco-2 cell barrier (in words): 4 and 24 h, PatA, DMDA 5, 50, 100 nM, controls 200 µM
Procedure: (§1) The transport assay was achieved as described previously. Briefly, 1 × 10^5 CaCo-2 or 5 × 10^4 Calu-3 cells in 300 µL medium were seeded on 24-well ThinCerts (pre-coated with FCS for 60 min) and in the lower compartment, 1 mL culture medium per well was added. The Caco-2 cell barrier was generated over 20 days and the Calu-3 barrier was generated over 14 days. DMDA (0 nM, 5 nM, 50 nM, 100 nM), PatA (0 nM, 5 nM, 50 nM, 100 nM), 200 µM famotidine, 200 µM lucifer yellow or 200 µM carbamazepine diluted in medium was added to the apical compartment and incubated for 4 h or 24 h. The medium from the basolateral and apical compartment was collected and stored at −20 °C and analyzed using LC-MS/MS. To obtain the transport rate, the drug amount in the basolateral compartment at 4 h or 24 h was related to the drug amount in the apical compartment (0 h).
(§2) The detailed method for the analysis of DMDA, PatA, carbamazepine and famotidine using LC-MS/MS is described in the Supplementary Materials.

M1 MdMs [1] = experiment: Polarization of MdMs to M1 MdMs (zombie staining, flow cytometry, ELISA/CBA); type: cell-based, human; conditions: for Surface marker expression (CD86, CD80, TREM2, HLA-DR, CD206, CD14, CD163) / Apoptosis (zombie staining) / Inflammatory environment: release of cytokines (IL-6, IL-8, CCL2, CCL17, CL18, IFN-γ) and PGE2: M1 MdMs; for Surface marker expression (CD86, CD80, TREM2, HLA-DR, CD206, CD14, CD163) / Apoptosis (zombie staining): 48 h; for Surface marker expression (CD86, CD80, TREM2, HLA-DR, CD206, CD14, CD163): flow cytometry; for Apoptosis (zombie staining): IFN-γ polarization, 0.5-5 nM; for Inflammatory environment: release of cytokines (IL-6, IL-8, CCL2, CCL17, CL18, IFN-γ) and PGE2: supernatant, ELISA or CBA; for Effect on the release of inflammatory markers, M1 MdM: summary table
Procedure: (§3) The differentiation of human monocytes to macrophages (MdMs) was performed as previously described. Briefly, 0.5 × 10^6 CD14^+ cells/well were pretreated with different concentrations of PatA and DMDA or vehicle (DMSO) for 30 min. After pre-incubation, differentiation was initiated by the addition of 10 ng/mL GM-CSF for M1 MdMs or 50 ng/mL M-CSF for M2 MdMs and incubated for 7 days.
(§4) The polarization of MdMs to M1 or M2 MdMs was performed as previously described. M1 and M2 MdM polarization was conducted in separate experiments. Briefly, M1 MdMs were polarized in presence of PatA (0.5, 2.5, 5 nM), DMDA (0.5, 2.5, 5 nM) or vehicle (DMSO) with 20 ng/mL human IFN-γ for 48 h. M2 MdMs were polarized in presence of PatA (0.5, 2.5, 5 nM), DMDA (0.5, 2.5, 5 nM) or vehicle (DMSO) with 10 ng/mL human IL-4 for 24 h.
(§5) Surface marker analysis was performed as described previously. Briefly, 1.5–2 × 10^5 cells of each sample were blocked with human FcR Blocking Reagent (15 min, 4 °C). A Zombie Aqua™ Fixable Viability Kit (1:500 dilution, BioLegend, San Diego, CA, USA) was used according to the manufactory protocol to discriminate living and dead cells. Afterwards, samples were stained with a mixture of different surface marker antibodies (15 min, 4 °C) and measured with MACSQuant® Analyzer 10 flow cytometer. For M1-/M2-MdMs anti-CD86, anti-CD14, anti-HLA-DR, anti-CD206, anti-CD80, anti-TREM2 and anti-CD163 were used. For T cells, anti-CD69, anti-CD54, anti-CD49a, anti-CD18, anti-CD134, anti-CD154, anti-CD3 and anti-CD25 were analyzed. For B cells, anti-CD27, anti-CD19 and anti-CD38 were applied. For T cell and B cell proliferation assay, freshly isolated T and B cells were stained with CTV and detected using flow cytometry. Naïve B cells were characterized as CD19^+CD27^lowCD38^med, memory B cells as CD19^+CD27^med CD38^low and plasma cells as CD27^+CD38^+ cells. M1 MdMs and M2 MdMs cell population was gated using FSC/SSC channel. T cells were gated as CD3^+CD25^+ positive cells. The geometric mean of the fluorescent intensity was calculated using FlowJo software v10 (Treestar, Ashland, […], USA). Fold induction of surface marker expression was calculated using the DMSO-treated cells as the control.
(§6) For determination of cytokine concentrations in the supernatant of humane immune cells, cytometric bead array (BD Biosciences, Heidelberg, Germany) for IL-10, IL-17, IL-8, IL-6, IFN-γ and CCL2 was used. For the detection of CCL18, CCL17, IgG, IgA and PGE2, an ELISA was performed. The cytometric bead arrays and the ELISAs were performed according to the protocol of the supplier.

B cells = experiment: Energy metabolism (Seahorse OCR/ECAR) in B cells; type: cell-based, human; conditions: 5 days, PatA, DMDA 0.25-0.5 nM, silvestrol 5 nM, rapamycin 10 ng/mL
Procedure: (§7) The determination of the energy metabolism was performed as described previously. Briefly, for the analysis of the extracellular acidification rate (ECAR) and the oxygen consumption rate (OCR) for human B cells, Tcells, M1 MdMs and M2 MdMs, the Seahorse XFe96 FluxPak (Agilent, Waldbronn, Germany) was used as recommended by the manufacturer. MdMs were polarized to M1 or M2 MdMs in the presence of PatA (0.5, 2.5, 5 nM), DMDA (0.5, 2.5, 5 nM) or vehicle (DMSO) for 48 h or 24 h, respectively. T cells were activated in the presence of PatA (0.25, 0.5 nM), DMDA (0.25, 0.5 nM), silvestrol or DMSO. B cells were activated in the presence of PatA (0.25, 0.5 nM), DMDA (0.25, 0.5 nM), silvestrol (5 nM) or rapamycin (10 ng/mL positive control). Cells were washed with Seahorse XF RPMI medium pH 7.4 (Agilent, Waldbronn, Germany) and OCR and ECAR were measured as octuplicates for a period of 160 min using the Seahorse XFe96 Analyzer (Agilent, Waldbronn, Germany) and analyzed by Wave Software 2.6.3.8 (Agilent, Waldbronn, Germany). The relative values were calculated by relating the OCR or ECAR values obtained after 50 min to the values of the vehicle control (not stimulated).

M2 MdMs [2] = experiment: Energy metabolism (Seahorse OCR/ECAR) in M2 MdMs; type: cell-based, human; conditions: 24 h, 0.5-5 nM
Procedure: as §7

M1 MdMs [3] = experiment: Energy metabolism (Seahorse OCR/ECAR) in M1 MdMs; type: cell-based, human; conditions: 48 h, 0.5-5 nM
Procedure: as §7

Calu-3 cell barrier = experiment: Transport assay, Calu-3 cell barrier; type: in vitro ADME; conditions: for Permeability / transport rate across Calu-3 cell barrier (in words): 4 and 24 h, PatA, DMDA 5, 50, 100 nM, controls 200 µM
Procedure: as §1, §2

[4] = Transport assay, porous membrane without cell barrier; type: in vitro ADME; conditions: 100 nM; for Transport rate without a cell barrier: apical to basolateral
M2 MdMs [5] = experiment: Polarization of MdMs to M2 MdMs (zombie staining, flow cytometry, ELISA/CBA); type: cell-based, human; conditions: for Inflammatory environment (inflammatory mediators in supernatant): ELISA or CBA; for Apoptosis (zombie staining): IL-4 polarization, 0.5-5 nM; for Effect on the release of inflammatory markers, M2 MdM: summary table
Procedure: as §3, §4, §5, §6

[6] = M2 MdMs, CD163low population, 24 h

| SMILES | Transport rate with Caco-2 cell barrier (Caco-2 cell barrier; 100 nM, 24 h) | Permeability / transport rate across Caco-2 cell barrier (in words) (Caco-2 cell barrier) | Surface marker expression (CD86, CD80, TREM2, HLA-DR, CD206, CD14, CD163) (M1 MdMs [1]) | Apoptosis (zombie staining) (M1 MdMs [1]) | Inflammatory environment: release of cytokines (IL-6, IL-8, CCL2, CCL17, CL18, IFN-γ) and PGE2 (M1 MdMs [1]) | Effect on the release of inflammatory markers, M1 MdM (M1 MdMs [1]) | Energy metabolism: glycolysis (ECAR) and oxidative phosphorylation (OCR) (B cells) | Energy metabolism: glycolysis (ECAR) and oxidative phosphorylation (OCR) (M2 MdMs [2]) | Energy metabolism: glycolysis (ECAR) and oxidative phosphorylation (OCR) (M1 MdMs [3]) | Transport rate with Calu-3 cell barrier (Calu-3 cell barrier; 100 nM, 24 h) | Permeability / transport rate across Calu-3 cell barrier (in words) (Calu-3 cell barrier) | Transport rate without a cell barrier ([4]; 4 h) | Transport rate without a cell barrier ([4]; 24 h) | TREM2 surface marker expression (M2 MdMs [5]; M2 MdMs, CD163low population, 24 h, 5 nM) | Inflammatory environment (inflammatory mediators in supernatant) (M2 MdMs [5]; M2 MdMs) | Apoptosis (zombie staining) (M2 MdMs [5]; M2 MdMs, 24 h) | Effect on the release of inflammatory markers, M2 MdM (M2 MdMs [5]) | Stability in the media under transport assay conditions ([4]; inferred from transport without cell barrier) | CD80 surface marker expression (M2 MdMs [5]; [6]) | CD206 surface marker expression (M2 MdMs [5]; [6]) |
| --- | --- | --- | --- | --- | --- | --- | --- | --- | --- | --- | --- | --- | --- | --- | --- | --- | --- | --- | --- | --- |
| CC(/C=C/C(C)=C/[C@@H]1Cc2nc(cs2)CCCCC(=O)O[C@@H](C)C/C(C)=C/C=C\C(=O)O1)=C\CN(C)C [DMDA, des-methyl des-amino pateamine A] | about 6% | exhibited low permeability | only reduced CD14 expression | Neither PatA nor DMDA induced apoptosis | did not affect the inflammatory environment | No effect | induced only glycolysis | had no effect on energy consumption | had no effect on energy consumption | ~14% | exhibited low permeability | about 28% | ~41% | increased the anti-inflammatory surface marker TREM2 | did not affect the inflammatory environment | did not induce apoptosis | No effect | – | – | – |
| CC(/C=C/C(C)=C/[C@@H]1Cc2nc(cs2)[C@@H](C)C[C@@H](N)CC(=O)O[C@@H](C)C/C(C)=C/C=C\C(=O)O1)=C\CN(C)C [PatA, pateamine A] | – | no permeability was detected | no significant effect on surface marker expression | Neither PatA nor DMDA induced apoptosis | did not affect the inflammatory environment | No effect | induced oxidative phosphorylation and glycolysis | reduced glycolysis and oxidative phosphorylation | reduced glycolysis and oxidative phosphorylation | – | no permeability was detected | about 28% | – | – | did not affect the inflammatory environment | did not induce apoptosis | No effect | probably unstable in the media | induced the pro-inflammatory marker CD80 | reduced the anti-inflammatory marker CD206 |

— publication PMC11546719, “Immune Modulatory Profile of the Pateamines PatA and Des-Methyl Des-Amino PatA” (International Journal of Molecular Sciences, 2024)
